From PMC5209882, “The Coptotermes gestroi aldo–keto reductase: a multipurpose enzyme for biorefinery applications” (Biotechnology for Biofuels, 2017)
Each block holds one molecule with its values, some of them ahead of it.

Columns and labels:
CgAKR-1 [1] = biological target: T1, CgAKR-1 (Coptotermes gestroi, UniProt A0A140CVV2); assay: X-ray crystal structure; settings: cofactor-binding site; complex described in text, ligand state not stated explicitly
T1 construct: full-length ORF of 334 residues, N-terminal 6xHis tag (pET-28a, NheI/BamHI), E. coli ArcticExpress (DE3); Ni and size exclusion purified
T1 sequence (A0A140CVV2 1-334): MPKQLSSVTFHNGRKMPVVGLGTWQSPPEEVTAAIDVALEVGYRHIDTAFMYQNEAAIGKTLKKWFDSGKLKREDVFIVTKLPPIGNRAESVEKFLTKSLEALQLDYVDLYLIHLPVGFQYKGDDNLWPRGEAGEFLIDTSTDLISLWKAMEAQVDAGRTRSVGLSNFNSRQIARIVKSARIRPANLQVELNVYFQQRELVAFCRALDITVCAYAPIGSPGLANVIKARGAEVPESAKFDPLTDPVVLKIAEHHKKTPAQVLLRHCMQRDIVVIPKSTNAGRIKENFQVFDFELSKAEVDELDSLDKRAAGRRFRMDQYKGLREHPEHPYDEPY

CgAKR-1 [2] = biological target: T1, CgAKR-1; assay: NADPH oxidation at […] nm, varied NADPH; format: biochemical; settings: 5 mM 2-nitrobenzaldehyde; 50 mM sodium phosphate pH 7.0 (standard assay), 30 °C; Kd apparently from kinetics
purified protein = substrate: O=Cc1ccccc1[N+](=O)[O-]; assay: purified protein; format: biochemical, Coptotermes gestroi; settings: 0.2 mM NADPH, 50 mM sodium phosphate pH 7.0 (standard assay), 30 °C

Molecule: NC(=O)c1ccc[n+]([C@@H]2O[C@H](COP(=O)(O)OP(=O)(O)OC[C@H]3O[C@@H](n4cnc5c(N)ncnc54)[C@H](OP(=O)(O)O)[C@@H]3O)[C@@H](O)[C@H]2O)c1 [NADP]
X-ray crystal structure (CgAKR-1 [1]): the pocket was mainly delimited by the cofactor (NADP) and nine amino acids

Kd (CgAKR-1 [2]): 60 µM
Molecule: NC(=O)C1=CN([C@@H]2O[C@H](COP(=O)(O)OP(=O)(O)OC[C@H]3O[C@@H](n4cnc5c(N)ncnc54)[C@H](OP(=O)(O)O)[C@@H]3O)[C@@H](O)[C@H]2O)C=CC1 [NADPH]

B1: CgAKR-1 (Coptotermes gestroi) (protein)
chain: T1 sequence (A0A140CVV2 1-334)
notes: full-length ORF of 334 residues, N-terminal 6xHis tag (pET-28a, NheI/BamHI), E. coli ArcticExpress (DE3); Ni and size exclusion purified
Km (purified protein): 150 µM
kcat (purified protein): 7.5 s⁻¹
